Laboratory results reported in ChEMBL document CHEMBL1135073, “Solution and solid-phase synthesis of potent inhibitors of hepatitis C virus NS3 proteinase” (Bioorg Med Chem Lett, 2002).
*1 amine or outer side, *2 acyl side, *3 side chain or, on linkers, in order; H or OH if unused. Where a SMILES comes first, the peptide text is derived from it. [ ]: non-standard residue; d: D form. The star is where a group is joined. Nleψ(COCO) = CCCC[C@H](N[*:1])C(=O)C(=O)[*:2]; Acetyl(2-naphthyl) = O=C(Cc1ccc2ccccc2c1)*; NH(1S-phenylpropyl) = CC[C@H](N*)c1ccccc1; Phe(2-Me) = Cc1ccccc1C[C@H](N)C(=O)O; NleCONH2 = CCCC[C@H](N*)C(=O)C(N)=O; 3Thi = N[C@@H](Cc1ccsc1)C(=O)O; Phg = N[C@H](C(=O)O)c1ccccc1; Suc = O=C(CCC(=O)[*:2])[*:1]; Tle = CC(C)(C)[C@H](N)C(=O)O; Bn = c1ccc(C*)cc1

Molecular target: NS3 (Hepatitis C virus, UniProt A3EZJ3)
Test: Inhibitory concentration against Hepatitis C virus NS3 proteinase
Parameters: species or system Hepacivirus hominis

NS3, sequence (A3EZJ3 whole entry): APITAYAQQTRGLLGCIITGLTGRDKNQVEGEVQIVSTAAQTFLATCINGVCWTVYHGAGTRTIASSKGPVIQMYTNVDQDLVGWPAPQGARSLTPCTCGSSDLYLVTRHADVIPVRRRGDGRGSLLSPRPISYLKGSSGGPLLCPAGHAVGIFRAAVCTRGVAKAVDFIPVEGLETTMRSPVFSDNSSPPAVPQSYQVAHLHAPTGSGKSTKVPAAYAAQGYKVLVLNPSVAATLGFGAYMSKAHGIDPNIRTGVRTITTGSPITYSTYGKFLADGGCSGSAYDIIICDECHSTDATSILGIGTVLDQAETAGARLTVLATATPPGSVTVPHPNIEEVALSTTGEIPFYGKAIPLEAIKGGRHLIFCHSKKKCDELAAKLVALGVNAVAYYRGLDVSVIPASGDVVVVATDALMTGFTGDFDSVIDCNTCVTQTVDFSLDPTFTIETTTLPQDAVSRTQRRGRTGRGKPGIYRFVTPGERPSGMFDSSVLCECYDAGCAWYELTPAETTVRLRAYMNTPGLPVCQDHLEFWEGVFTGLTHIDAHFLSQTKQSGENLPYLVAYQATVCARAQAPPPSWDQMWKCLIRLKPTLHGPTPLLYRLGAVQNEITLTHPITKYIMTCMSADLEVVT

Point of comparison: `CCCC[C@H](NC(=O)[C@H](CC(C)C)NC(=O)[C@@H](NC(=O)[C@H](Cc1ccccc1C)NC(=O)[C@H](COCc1ccccc1)NC(=O)[C@H](CC(=O)O)NC(=O)CCC(=O)O)C(C)(C)C)C(=O)C(N)=O` (Suc-DS(Bn)[Phe(2-Me)][Tle]L-NleCONH2), IC50 29 nM. Against it:
- CCCC[C@H](NC(=O)[C@H](CC(C)C)NC(=O)[C@@H](NC(=O)[C@H](Cc1ccccc1C)NC(=O)[C@H](CCC(=O)O)NC(=O)[C@H](CC(=O)O)NC(=O)Cc1ccc2ccccc2c1)C(C)(C)C)C(=O)C(N)=O ({Acetyl(2-naphthyl)}-DE[Phe(2-Me)][Tle]L-NleCONH2) — 3.1-fold higher, 90 nM
- CCCC[C@H](NC(=O)[C@H](CC(C)C)NC(=O)[C@@H](NC(=O)[C@H](Cc1ccccc1C)NC(=O)[C@H](CCC(=O)O)NC(=O)[C@H](Cc1c[nH]c2ccccc12)NC(=O)CCC(=O)O)C(C)(C)C)C(=O)C(N)=O (Suc-WE[Phe(2-Me)][Tle]L-NleCONH2) — within 1.5-fold, 41 nM
- CCCC[C@H](NC(=O)[C@H](Cc1ccsc1)NC(=O)[C@@H](NC(=O)[C@H](Cc1ccccc1C)NC(=O)[C@H](CCC(=O)O)NC(=O)[C@H](CC(=O)O)NC(=O)CCC(=O)O)C(C)(C)C)C(=O)C(N)=O (Suc-DE[Phe(2-Me)][Tle][3Thi]-NleCONH2) — 4.5-fold higher, 130 nM
- CCCC[C@H](NC(=O)[C@H](CC(C)C)NC(=O)[C@@H](NC(=O)[C@H](Cc1ccccc1C)NC(=O)[C@@H](NC(=O)[C@H](CC(=O)O)NC(=O)CCC(=O)O)C(C)C)C(C)(C)C)C(=O)C(N)=O (Suc-DV[Phe(2-Me)][Tle]L-NleCONH2) — within 1.5-fold, 20 nM
- CCCC[C@H](NC(=O)[C@H](CC(C)C)NC(=O)[C@@H](NC(=O)[C@H](Cc1ccccc1C)NC(=O)[C@H](CCC(=O)O)NC(=O)[C@H](CC(=O)O)NC(=O)CCC(=O)O)c1ccccc1)C(=O)C(N)=O (Suc-DE[Phe(2-Me)][Phg]L-NleCONH2) — within 1.5-fold, 42 nM
- CCCC[C@H](NC(=O)[C@H](CC(C)C)NC(=O)[C@@H](NC(=O)[C@H](Cc1ccc(OCc2ccccc2)cc1)NC(=O)[C@H](CCC(=O)O)NC(=O)[C@H](CC(=O)O)NC(=O)CCC(=O)O)C(C)(C)C)C(=O)C(N)=O (Suc-DEY(Bn)[Tle]L-NleCONH2) — 3.8-fold higher, 110 nM
- CCCC[C@H](NC(=O)[C@H](CC(C)C)NC(=O)[C@@H](NC(=O)[C@H](Cc1ccccc1C)NC(=O)[C@H](CCC(=O)O)NC(=O)[C@H](CC(=O)O)NC(=O)CCC(=O)O)C(C)(C)C)C(=O)C(=O)N[C@@H](CC)c1ccccc1 (Suc-DE[Phe(2-Me)][Tle]L[Nleψ(COCO)]-{NH(1S-phenylpropyl)}) — 2.6-fold lower, 11 nM
